In PMC9570109, “Improved Trimethylangelicin Analogs for Cystic Fibrosis: Design, Synthesis and Preliminary Screening” (International Journal of Molecular Sciences, 2022):
Entries after “also recorded” stand apart in the source; their conditions may differ.

Target: T1, F508del CFTR (Homo sapiens, UniProt P13569, DEL508-508)
T1 construct: expressed in transfected cells; host or cells: CFBE41o- cells overexpressing F508del CFTR and HS-YFP (YFP-H148Q/I152L), a gift from N. Pedemonte, Gaslini Institute
T1 sequence (P13569 with tags, fused parts or gaps DEL508-508): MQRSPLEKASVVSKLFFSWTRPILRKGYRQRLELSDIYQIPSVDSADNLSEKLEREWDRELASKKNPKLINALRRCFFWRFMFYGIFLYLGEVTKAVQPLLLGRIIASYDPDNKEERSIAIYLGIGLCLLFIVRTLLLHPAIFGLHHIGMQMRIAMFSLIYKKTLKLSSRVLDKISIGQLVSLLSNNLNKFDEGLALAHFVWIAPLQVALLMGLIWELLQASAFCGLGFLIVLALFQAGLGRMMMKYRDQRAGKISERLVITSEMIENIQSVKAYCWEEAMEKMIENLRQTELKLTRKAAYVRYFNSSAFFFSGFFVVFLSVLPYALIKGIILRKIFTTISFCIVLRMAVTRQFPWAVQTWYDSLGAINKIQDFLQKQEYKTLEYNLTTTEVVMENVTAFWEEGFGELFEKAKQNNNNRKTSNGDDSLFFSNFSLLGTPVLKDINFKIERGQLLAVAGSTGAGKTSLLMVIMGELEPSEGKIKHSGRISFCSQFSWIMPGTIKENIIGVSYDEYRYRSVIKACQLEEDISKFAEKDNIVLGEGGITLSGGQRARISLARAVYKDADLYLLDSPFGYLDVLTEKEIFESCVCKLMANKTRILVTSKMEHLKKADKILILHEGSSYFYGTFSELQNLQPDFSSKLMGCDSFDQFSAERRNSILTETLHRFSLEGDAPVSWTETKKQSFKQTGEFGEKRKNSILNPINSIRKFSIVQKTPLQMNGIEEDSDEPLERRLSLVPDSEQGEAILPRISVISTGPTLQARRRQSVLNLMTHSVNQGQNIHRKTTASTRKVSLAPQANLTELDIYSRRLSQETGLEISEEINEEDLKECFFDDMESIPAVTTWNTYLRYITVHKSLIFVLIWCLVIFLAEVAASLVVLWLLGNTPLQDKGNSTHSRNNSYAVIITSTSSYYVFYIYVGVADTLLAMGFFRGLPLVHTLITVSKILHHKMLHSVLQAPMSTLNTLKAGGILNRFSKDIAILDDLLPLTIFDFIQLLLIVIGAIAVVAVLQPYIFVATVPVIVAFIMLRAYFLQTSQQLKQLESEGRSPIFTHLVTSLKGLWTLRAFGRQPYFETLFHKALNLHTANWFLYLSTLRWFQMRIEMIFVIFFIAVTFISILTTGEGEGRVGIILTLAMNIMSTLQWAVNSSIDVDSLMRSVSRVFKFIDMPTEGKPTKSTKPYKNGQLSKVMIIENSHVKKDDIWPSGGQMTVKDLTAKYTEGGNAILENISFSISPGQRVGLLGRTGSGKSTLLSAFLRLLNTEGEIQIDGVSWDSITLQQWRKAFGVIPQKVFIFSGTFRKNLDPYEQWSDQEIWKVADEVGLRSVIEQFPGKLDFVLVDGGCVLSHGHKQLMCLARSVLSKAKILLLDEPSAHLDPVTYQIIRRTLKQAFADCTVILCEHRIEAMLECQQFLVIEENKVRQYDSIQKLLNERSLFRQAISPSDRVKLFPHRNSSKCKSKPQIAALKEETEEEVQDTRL
Assay: F508del CFTR functional rescue (corrector) HS-YFP single-cell assay
Format: cell-based
Details: CFBE41o- YFP-F508del cells; for F508del CFTR rescue (corrector) activity: 48 h incubation, 200 nM
Method: To verify the possibility that the title compounds may act as correctors in CFBE41o-, overexpressing F508del and the high sensitivity halide-sensing yellow fluorescent protein (HS-YFP) YFP-H148Q/I152L, we examined the effect of 48 h preincubation with vehicle or the TMA analogs or TMA or VX809 (Lumacaftor), as a positive control.
At the time of the assay, the correction of the F508del-CFTR function was evaluated in single-cell analysis by measuring the decrease in YFP fluorescence after the concomitant addition of extracellular iodide and the activating cocktail (20 μM forskolin and 5 μM VX770), in the presence or absence of the 10 μM CFTR inhibitor, CFTRinh-172. […] At least two derivatives show CFTR activity similar to that of the parent TMA.
The effect of TMA analogs on CFTR function was tested in CFBE41o- overexpressing F508del and the high sensitivity halide-sensing yellow fluorescent protein (HS-YFP) YFP-H148Q/I152L (a generous gift from N. Pedemonte, Gaslini Institute, Genova, Italy). YFP CF cells were seeded on round glass coverslips and preincubated for 48 h with vehicle or test compounds or VX809 or TMA. At the time of the assay, cells were washed in Dulbecco’s PBS (in mM: 137 NaCl, 2.7 KCl, 8.1 Na2HPO4, 1.5 KH2PO4, 1 CaCl2, and 0.5 MgCl2, pH 7.4) and subsequently incubated with a stimulation cocktail (20 μM forskolin and 5 μM VX770) in the presence and absence of 10 μM CFTR inhibitor, CFTRInh-172 (Sigma), for 30 min. The coverslips were then transferred on a Nikon TMD inverted microscope through a Nikon Fluor 40 objective. The signal was acquired with a Hamamatsu C2400–97 charge-coupled intensified video camera at a rate of 1 frame/3 s. The fluorescence coming from every single cell was analyzed by custom software (Spin, Vicenza, Italy). The results are presented as transformed data to obtain the percentage signal variation (Fx) relative to the time of addition of the stimulus, according to the equation: Fx = ([Ft − Fo]/Fo) × 100, where Ft and Fo are the fluorescence values at time t and at the time of stimulus addition, respectively. The assay of each sample consists of a continuous 99-s fluorescence reading with 30 s before and 69 s after injection of the iodide-rich Dulbecco’s PBS (in mM: 137 NaI, 2.7 KCl, 8.1 Na2HPO4, 1.5 KH2PO4, 1 CaCl2, and 0.5 MgCl2, pH 7.4) to reach a final iodide concentration of 50 mM [20]. The different sensitivity of HS-YFP toward iodide and chloride allows assays to be performed by measuring the transport of anions through the plasma membrane as changes in cell fluorescence. For this assay, cells expressing HS-YFP are equilibrated in a physiological chloride-rich saline solution (e.g., Dulbecco’s PBS). During fluorescence reading, cells are exposed to a high concentration of iodide. Iodide influx quenches the cell fluorescence with a rate that depends on the permeability of the cell membrane to halides, and therefore, on the activity of the anion channels or transporters.
Figure 4 Evaluation of different TMA analogs as F508del CFTR correctors in CFBE41o- YFP-F508del cells. Correction of F508del-CFTR function was assessed, in a single cell, by measuring the decrease in YFP fluorescence upon addition of extracellular iodide and with the activating cocktail, in the presence or absence of CFTR inhibitor, CFTRInh-172. Iodide influx was tested under control condition (vehicle) or after 48 h incubation with the correctors 200 nM or 1 μM VX809. The YFP fluorescence decay rate was calculated by fitting the fluorescence data with an exponential function of time courses. CFTR activity was obtained by the difference between the fluorescence decay rate of YFP in the presence and absence of CFTRInh-172. Fluorescence coming from every single cell of at least five cells per field was recorded. Each bar corresponds to the mean ± SEM of data points coming from at least three different experiments (5–10 different cells/each experiment). […]

Cc1cc2c(-c3ccccc3)cc(=O)oc2c2c(C)coc12 [4-PhDMA]
F508del CFTR rescue (corrector) activity: active; also recorded: most active derivatives of the series | F508del CFTR rescue (corrector) activity (listed as 12): promising F508del CFTR rescue ability | reduction in YFP fluorescence induced by iodide influx compared to vehicle (48 h treatment, representative time courses): greater reduction in YFP fluorescence

Cc1cc(=O)oc2c1cc(-c1ccccc1)c1occ(C)c12 [6-PhDMA]
F508del CFTR rescue (corrector) activity: inactive

Cc1cc(=O)oc2c1cc(-c1ccc(N)cc1)c1occ(C)c12 [pANDMA]
F508del CFTR rescue (corrector) activity: most active derivatives of the series | F508del CFTR rescue (corrector) activity (listed as 25): promising F508del CFTR rescue ability
